This note sets out measurements from the supplement of paper PMC7661543.

± gives the standard deviation of the averaged measurements.

Holding throughout (assay): relative cell number vs DMSO control (72 h) (% of DMSO); higher = less growth inhibition (more cells)
Common to all, as to conditions: sgRNA knockout: sgNT

The test system of assay [1] is BT-20. On the procedure:
(§1)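 QMAP-Seq: a pool of 5 breast cancer cell lines (ZR-75-1, SKBR3, HCC-38, MDA-MB-231, BT-20), each carrying 12 doxycycline-inducible Cas9 sgRNA perturbations (11 knockouts plus non-targeting sgNT), was treated with compounds for 72 h at four 10-fold doses (10 nM-10 uM or 1 nM-1 uM range). Barcodes were amplified and sequenced, and cell number was interpolated from 293T spike-in standard curves. The result is expressed as % of the median of DMSO wells. Two biological replicates.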

The test system of assay [2] is HCC-38. On the procedure:
as §1

The subject of assay [3] is ZR-75-1. The procedure: as §1
Assay [4] has as its system MDA-MB-231. On the procedure:
as §1

The test system of assay [5] is SKBR3. On the procedure:
as §1

Take `Fc1ccc(CNc2ncnc3ccc(F)cc23)cc1` [Spautin1]: the relative cell number in assay [1] (10 nM) came to 96.8 ± 34; in assay [1] (100 nM), 86 ± 36; in assay [1] (1000 nM), 89.8 ± 13; in assay [1] (10000 nM) it was 88.6 ± 19; in assay [2] (10 nM) it was 104 ± 8; in assay [2] (100 nM), 99.2 ± 11. Further, the relative cell number in assay [2] (1000 nM) turned out to be 111 ± 3.9; in assay [2] (10000 nM) it was 106 ± 1.6; in assay [3] (10 nM), 55.6 ± 14; in assay [3] (100 nM), 70.6 ± 3.6; in assay [3] (1000 nM), 94.4 ± 13; in assay [3] (10000 nM), 49.3 ± 9.3. Besides, the relative cell number in assay [4] (10 nM) stood at 124 ± 29; in assay [4] (100 nM) it was 97 ± 34; in assay [4] (1000 nM), 77.7 ± 26; in assay [4] (10000 nM), 74.8 ± 8; in assay [5] (10 nM) it was 87.9 ± 40; in assay [5] (100 nM), 85.3 ± 0.86. For the same compound, the values for the relative cell number in assay [5] (1000 nM) and in assay [5] (10000 nM) were 87.4 ± 8.4 and 92 ± 23, respectively.

`CC(C)n1cnc2c(NCCc3ccc(O)cc3)nc(-c3csc4ccccc34)nc21` [StemRegenin1]: the relative cell number in assay [1] (10 nM) stood at 98.5 ± 13; in assay [1] (100 nM) it was 115 ± 20; in assay [1] (1000 nM), 94.3 ± 36; in assay [1] (10000 nM), 55 ± 7.7; in assay [2] (10 nM) it was 90 ± 7.6; in assay [2] (100 nM), 116 ± 2.2. In addition, the relative cell number in assay [2] (1000 nM) turned out to be 104 ± 2.8; in assay [2] (10000 nM), 86 ± 4; in assay [3] (10 nM) it was 65.1 ± 15; in assay [3] (100 nM) it was 135 ± 5.4; in assay [3] (1000 nM), 153 ± 85; in assay [3] (10000 nM), 30.4 ± 12. In addition, the relative cell number is 101 ± 24 in assay [4] (10 nM); 97.5 ± 25 in assay [4] (100 nM); 132 ± 74 in assay [4] (1000 nM); 75.9 ± 11 in assay [4] (10000 nM); 103 ± 9 in assay [5] (10 nM); 108 ± 14 in assay [5] (100 nM). Besides, the results for the relative cell number in assay [5] (1000 nM) and in assay [5] (10000 nM) were 85.7 ± 28 and 29.6 ± 8.4, respectively.

Take `NC(=O)Nc1sc(-c2ccc(F)cc2)cc1C(N)=O` [TPCA1]: the relative cell number in assay [1] (10 nM) was 119 ± 19; in assay [1] (100 nM), 101 ± 34; in assay [1] (1000 nM), 102.8 ± 0.57; in assay [1] (10000 nM), 69.2 ± 3.1; in assay [2] (10 nM), 90.2 ± 2.3; in assay [2] (100 nM), 94.5 ± 5.5. Also, the relative cell number in assay [2] (1000 nM) is 100 ± 6.1; in assay [2] (10000 nM), 74.1 ± 4.5; in assay [3] (10 nM) it was 104 ± 42; in assay [3] (100 nM), 94.7 ± 6; in assay [3] (1000 nM), 99.5 ± 6.5; in assay [3] (10000 nM), 43.1 ± 5.7. The relative cell number in assay [4] (10 nM) turned out to be 111 ± 21; in assay [4] (100 nM), 127 ± 23; in assay [4] (1000 nM), 130 ± 4.7; in assay [4] (10000 nM), 69.6 ± 7.9; in assay [5] (10 nM), 92.2 ± 32; in assay [5] (100 nM), 93.1 ± 17. In addition, the figures for the relative cell number in assay [5] (1000 nM) and in assay [5] (10000 nM) were 102 ± 8.7 and 54.5 ± 1.1, respectively.

As to `C=CC[C@@H]1/C=C(\C)C[C@H](C)C[C@H](OC)[C@H]2O[C@@](O)(C(=O)C(=O)N3CCCC[C@H]3C(=O)O[C@H](/C(C)=C/[C@@H]3CC[C@@H](O)[C@H](OC)C3)[C@H](C)[C@@H](O)CC1=O)[C@H](C)C[C@@H]2OC` [Tacrolimus], the relative cell number in assay [1] (10 nM) was determined as 110 ± 2.2; in assay [1] (100 nM), 105 ± 4.6; in assay [1] (1000 nM), 101 ± 16; in assay [1] (10000 nM), 120 ± 26; in assay [2] (10 nM), 117 ± 8.4; in assay [2] (100 nM) it was 99.57 ± 0.7. Moreover, the relative cell number in assay [2] (1000 nM) amounted to 115 ± 14; in assay [2] (10000 nM), 114 ± 5.7; in assay [3] (10 nM), 108 ± 7.9; in assay [3] (100 nM) it was 91.5 ± 29; in assay [3] (1000 nM) it was 85.6 ± 18; in assay [3] (10000 nM), 92.8 ± 28. Moreover, the relative cell number in assay [4] (10 nM) stood at 133 ± 27; in assay [4] (100 nM) it was 106 ± 7.6; in assay [4] (1000 nM), 96.7 ± 7; in assay [4] (10000 nM), 135 ± 12; in assay [5] (10 nM), 108 ± 22; in assay [5] (100 nM), 90.6 ± 11. For the same compound, the relative cell number was found to be 101 ± 17 in assay [5] (1000 nM) and 128.1 ± 0.39 in assay [5] (10000 nM).

Take `Cn1nnc2c(C(N)=O)ncn2c1=O` [Temozolomide]: the relative cell number was 106 ± 24 in assay [1] (10 nM); 111 ± 30 in assay [1] (100 nM); 111 ± 14 in assay [1] (1000 nM); 132 ± 37 in assay [1] (10000 nM); 115 ± 2.3 in assay [2] (10 nM); 89.6 ± 1.4 in assay [2] (100 nM). Further, the relative cell number in assay [2] (1000 nM) worked out at 113 ± 6.5; in assay [2] (10000 nM) it was 137 ± 26; in assay [3] (10 nM), 89.66 ± 0.62; in assay [3] (100 nM), 103 ± 16; in assay [3] (1000 nM), 81.7 ± 5.9; in assay [3] (10000 nM), 86.6 ± 3.4. Also, the relative cell number in assay [4] (10 nM) turned out to be 125 ± 13; in assay [4] (100 nM), 108 ± 27; in assay [4] (1000 nM), 89 ± 25; in assay [4] (10000 nM), 101.6 ± 0.8; in assay [5] (10 nM), 111 ± 8.3; in assay [5] (100 nM), 84.7 ± 20. The relative cell number was 104 ± 27 in assay [5] (1000 nM) and 96.1 ± 40 in assay [5] (10000 nM).

As for `COc1cc([C@@H]2c3cc4c(cc3[C@@H](O[C@@H]3O[C@@H]5CO[C@@H](c6cccs6)O[C@H]5[C@H](O)[C@H]3O)[C@H]3COC(=O)[C@H]23)OCO4)cc(OC)c1O` [Teniposide], the relative cell number is 98.2 ± 1.9 in assay [1] (10 nM); 67.9 ± 24 in assay [1] (100 nM); 51.2 ± 5.6 in assay [1] (1000 nM); 22.6 ± 5.8 in assay [1] (10000 nM); 87.1 ± 7.7 in assay [2] (10 nM); 43 ± 5.7 in assay [2] (100 nM). Besides, the relative cell number in assay [2] (1000 nM) was 25.52 ± 0.049; in assay [2] (10000 nM) it was 13.4 ± 2; in assay [3] (10 nM) it was 55.8 ± 2.6; in assay [3] (100 nM) it was 31.4 ± 6.7; in assay [3] (1000 nM) it was 29.9 ± 8.2; in assay [3] (10000 nM) it was 26.1 ± 0.97. Besides, the relative cell number in assay [4] (10 nM) turned out to be 75.8 ± 16; in assay [4] (100 nM) it was 25.4 ± 1.1; in assay [4] (1000 nM), 11 ± 1.3; in assay [4] (10000 nM), 11.2 ± 4.8; in assay [5] (10 nM), 101 ± 6.8; in assay [5] (100 nM) it was 26.4 ± 3.2. Moreover, the relative cell number in assay [5] (1000 nM) worked out at 18.4 ± 2.3; in assay [5] (10000 nM), 15.9 ± 0.19.
